# pIC50: −log10 of the molar value.
# Target: BRD4 (Homo sapiens, UniProt O60885)
# Assay: Time resolved fluorescence resonance energy transfer (TR-FRET) binding assay, bromodomain BRD4
# Details: one of the FRET assays described; read-out: FRET BRD4 IC50
row,Structure (SMILES),pIC50
1,"CCOP(=O)(CCNc1ccc2c3ncc(-c4c(C)nnn4C)cc3n([C@H](c3ccccc3)C3CCOCC3)c2n1)OCC [Example 215, Diethyl (2-{[5-(dimethyl-1H-1,2,3-triazol-5-yl)-8-[(S)-oxan-4-yl(phenyl)methyl]-3,8,10-triazatricyclo[7.4.0.0^2,^7]trideca-1(9),2(7),3,5,10,12-hexaen-11-yl]amino}ethyl)phosphonate]",> 8.00
2,"Cc1nnn(C)c1-c1cnc2c3ccc(Cl)nc3n([C@H](c3ccccc3F)C3CCOCC3)c2c1 [Example 226, 11-Chloro-5-(dimethyl-1H-1,2,3-triazol-5-yl)-8-[(S)-(2-fluorophenyl)(oxan-4-yl)methyl]-3,8,10-triazatricyclo[7.4.0.0^2,^7]trideca-1(13),2(7),3,5,9,11-hexaene]",> 8.00
3,"CNCCN(C)c1ccc2c3ncc(-c4c(C)nnn4C)cc3n([C@H](c3ccccc3F)C3CCOCC3)c2n1 [Example 228, 5-(Dimethyl-1H-1,2,3-triazol-5-yl)-8-[(S)-(2-fluorophenyl)(oxan-4-yl)methyl]-N-methyl-N-[2-(methylamino)ethyl]-3,8,10-triazatricyclo[7.4.0.0^2,^7]trideca-1(13),2(7),3,5,9,11-hexaen-11-amine]",> 9.00
4,"[2H]C([2H])([2H])N1CCN(c2ncc3c4ncc(-c5c(C)nnn5C)cc4n([C@H](c4ccccc4)C4CCOCC4)c3n2)CC1 [Example 156, 5-(Dimethyl-1H-1,2,3-triazol-5-yl)-11-[4-(^2H3)methylpiperazin-1-yl]-8-[(S)-oxan-4-yl(phenyl)methyl]-3,8,10,12-tetraazatricyclo[7.4.0.0^2,^7]trideca-1(9),2(7),3,5,10,12-hexaene]",> 8.00
5,"COc1nc(C(C)(C)O)cc2c1c1ncc(-c3c(C)nnn3C)cc1n2[C@@H](c1ncccc1F)C1CCOCC1 [Example 311, 2-{8-[(R)-(3-Fluoropyridin-2-yl)(oxan-4-yl)methyl]-13-methoxy-5-[4-(^2H3)methyl-1-methyl-1H-1,2,3-triazol-5-yl]-3,8,12-triazatricyclo[7.4.0.0^2,^7]trideca-1(9),2(7),3,5,10,12-hexaen-11-yl}propan-2-ol]",> 8.00
6,"COCCNc1nccc2c3ncc(-c4c(C)nnn4C)cc3n([C@H](c3ccccc3)C3CCOCC3)c12 [Example 9, 5-(Dimethyl-1H-1,2,3-triazol-5-yl)-N-(2-methoxyethyl)-8-[(S)-oxan-4-yl(phenyl)methyl]-3,8,11-triazatricyclo[7.4.0.0^2,^7]trideca-1(13),2(7),3,5,9,11-hexaen-10-amine]",> 8.00
7,"[2H]C([2H])([2H])c1nnn(C)c1-c1cnc2c3c(OC)nc(N(C)CCNC)cc3n([C@H](c3ncccc3F)C3CCOCC3)c2c1 [Example 313, 8-[(S)-(3-Fluoropyridin-2-yl)(oxan-4-yl)methyl]-13-methoxy-N-methyl-5-[4-(^2H3)methyl-1-methyl-1H-1,2,3-triazol-5-yl]-N-[2-(methylamino)ethyl]-3,8,12-triazatricyclo[7.4.0.0^2,^7]trideca-1(9),2(7),3,5,10,12-hexaen-11-amine]",> 5.82
8,"COc1ccc2c3ncc(-c4c(C)nnn4C)cc3n(C(c3cccc(F)c3F)C3CCOCC3)c2n1 (racemic) [Example 17, 8-[(2,3-Difluorophenyl)(oxan-4-yl)methyl]-5-(dimethyl-1H-1,2,3-triazol-5-yl)-11-methoxy-3,8,10-triazatricyclo[7.4.0.0^2,^7]trideca-1(13),2(7),3,5,9,11-hexaene]",> 8.00
9,"[2H]C([2H])([2H])c1nnn(C)c1-c1cnc2c3c(OCC)ncc(S(C)(=O)=O)c3n(C(c3ncccc3F)C3CCOCC3)c2c1 (stereo not drawn) [Example 68, 13-Ethoxy-8-[(3-fluoropyridin-2-yl)(oxan-4-yl)methyl]-10-methanesulfonyl-5-[4-(^2H3)methyl-1-methyl-1H-1,2,3-triazol-5-yl]-3,8,12-triazatricyclo[7.4.0.0^2,^7]trideca-1(13),2(7),3,5,9,11-hexaene]",> 9.00
10,"[2H]C([2H])([2H])c1nnn(C)c1-c1cnc2c3c(NCC(F)(F)F)nccc3n([C@H](c3ccccc3)C3CCOCC3)c2c1 [Example 134, 5-[4-(^2H3)Methyl-1-methyl-1H-1,2,3-triazol-5-yl]-8-[(S)-oxan-4-yl(phenyl)methyl]-N-(2,2,2-trifluoroethyl)-3,8,12-triazatricyclo[7.4.0.0^2,^7]trideca-1(13),2(7),3,5,9,11-hexaen-13-amine]",> 9.00
11,"[2H]C([2H])([2H])c1nnn(C)c1-c1cnc2c3c(OC)ncc(S(C)(=O)=O)c3n(C(c3ccc(F)cc3)C3CCC(F)(F)CC3)c2c1 (stereo in doubt) [Example 96, 8-[(R)-(4,4-Difluorocyclohexyl)(4-fluorophenyl)methyl]-10-methanesulfonyl-13-methoxy-5-[4-(^2H3)methyl-1-methyl-1H-1,2,3-triazol-5-yl]-3,8,12-triazatricyclo[7.4.0.0^2,^7]trideca-1(13),2(7),3,5,9,11-hexaene]",> 5.82
12,"Cc1noc(C)c1-c1cnc2c3ccc(S(C)(=O)=O)nc3n([C@H](c3ccccc3)C3CCOCC3)c2c1 [Example 144, 5-(Dimethyl-1,2-oxazol-4-yl)-11-methanesulfonyl-8-[(S)-oxan-4-yl(phenyl)methyl]-3,8,10-triazatricyclo[7.4.0.0^2,^7]trideca-1(13),2(7),3,5,9,11-hexaene]",> 8.00
13,"[2H]C([2H])([2H])c1nnn(C)c1-c1cc2c(cn1)c1ncc(C(C)(C)O)cc1n2C(c1ncccc1F)C1CCOCC1 (single isomer, unassigned) [Example 366]",> 8.00
14,"[2H]C([2H])([2H])c1nnn(C)c1-c1cnc2c3cnc(C(C)(C)O)cc3n(C(CCC)c3ncccc3F)c2c1 (stereo not drawn) [Example 359, 2-{8-[1-(3-Fluoropyridin-2-yl)butyl]-5-[4-(^2H3)methyl-1-methyl-1H-1,2,3-triazol-5-yl]-3,8,12-triazatricyclo[7.4.0.0^2,^7]trideca-1(13),2(7),3,5,9,11-hexaen-11-yl}propan-2-ol]",> 8.00
15,"COc1ncc(Br)c2c1c1ncc(-c3c(C)nnn3C)cc1n2[C@H](c1ccccc1)C1CCOCC1 [Example 38, 10-Bromo-5-(dimethyl-1H-1,2,3-triazol-5-yl)-13-methoxy-8-[(S)-oxan-4-yl(phenyl)methyl]-3,8,12-triazatricyclo[7.4.0.0^2,^7]trideca-1(13),2(7),3,5,9,11-hexaene]",> 8.00
16,"[2H]C([2H])([2H])c1nnn(C)c1-c1cnc2c3ccc(N4CCNCC4)nc3n([C@H](c3ccccc3)C3CCOCC3)c2c1 [Example 251, 5-[4-(^2H3)Methyl-1-methyl-1H-1,2,3-triazol-5-yl]-8-[(S)-oxan-4-yl(phenyl)methyl]-11-(piperazin-1-yl)-3,8,10-triazatricyclo[7.4.0.0^2,^7]trideca-1(13),2(7),3,5,9,11-hexaene]",> 8.00
17,"[2H]C([2H])([2H])c1nnn(C)c1-c1cnc2c3ccc(C(C)(O)C4CC4)nc3n([C@H](c3ccccc3F)C3CCOCC3)c2c1 (stereo partly drawn) [Example 243, 1-Cyclopropyl-1-{8-[(S)-(2-fluorophenyl)(oxan-4-yl)methyl]-5-[4-(^2H3)methyl-1-methyl-1H-1,2,3-triazol-5-yl]-3,8,10-triazatricyclo[7.4.0.0^2,^7]trideca-1(13),2(7),3,5,9,11-hexaen-11-yl}ethan-1-ol]",> 8.00
18,"[2H]C([2H])([2H])c1nnn(C)c1-c1cnc2c3c(OC)ncc(S(C)(=O)=O)c3n([C@H](c3ccccc3)C3CCC(F)(F)CC3)c2c1 [Example 81, 8-[(S)-(4,4-Difluorocyclohexyl)(phenyl)methyl]-10-methanesulfonyl-13-methoxy-5-[4-(^2H3)methyl-1-methyl-1H-1,2,3-triazol-5-yl]-3,8,12-triazatricyclo[7.4.0.0^2,^7]trideca-1(13),2(7),3,5,9,11-hexaene]",> 9.00
19,"COc1ncc(CO)c2c1c1ncc(-c3c(C)nnn3C)cc1n2[C@H](c1ccccc1)C1CCOCC1 [Example 136, [5-(Dimethyl-1H-1,2,3-triazol-5-yl)-13-methoxy-8-[(S)-oxan-4-yl(phenyl)methyl]-3,8,12-triazatricyclo[7.4.0.0^2,^7]trideca-1(9),2,4,6,10,12-hexaen-10-yl]methanol]",> 8.00
20,"Cc1noc(C)c1-c1cnc2c3cnc(C(C)(C)O)cc3n([C@H](c3ccc(F)cc3)C3CCOCC3)c2c1 [Example 331, 2-[5-(Dimethyl-1,2-oxazol-4-yl)-8-[(S)-(4-fluorophenyl)(oxan-4-yl)methyl]-3,8,12-triazatricyclo[7.4.0.0^2,^7]trideca-1(9),2(7),3,5,10,12-hexaen-11-yl]propan-2-ol]",> 8.00
21,"[2H]C([2H])([2H])c1nnn(C)c1-c1cnc2c3c(C(C)=O)cncc3n([C@H](c3ccccc3)C3CCOCC3)c2c1 [Example 297, 1-{5-[4-(^2H3)Methyl-1-methyl-1H-1,2,3-triazol-5-yl]-8-[(S)-oxan-4-yl(phenyl)methyl]-3,8,11-triazatricyclo[7.4.0.0^2,^7]trideca-1(9),2(7),3,5,10,12-hexaen-13-yl}ethan-1-one]",> 8.00
22,"Cc1nnn(C)c1-c1cnc2c3ccnc(Cl)c3n([C@H](c3ccccc3)C3CCOCC3)c2c1 [Example 6, 10-Chloro-5-(dimethyl-1H-1,2,3-triazol-5-yl)-8-[(S)-oxan-4-yl(phenyl)methyl]-3,8,11-triazatricyclo[7.4.0.0^2,^7]trideca-1(13),2(7),3,5,9,11-hexaene]",> 9.00
23,"[2H]C([2H])([2H])C(=O)c1cc2c(cn1)c1ncc(-c3c(C)noc3C)cc1n2[C@H](c1ccc(F)cc1)C1CCOCC1 [Example 223, 1-[5-(Dimethyl-1,2-oxazol-4-yl)-8-[(S)-(4-fluorophenyl)(oxan-4-yl)methyl]-3,8,12-triazatricyclo[7.4.0.0^2,^7]trideca-1(13),2(7),3,5,9,11-hexaen-11-yl](^2H3)ethan-1-one]",> 8.00
24,"[2H]C([2H])([2H])c1nnn(C)c1-c1cnc2c3cnc(OCC4CC4)cc3n([C@H](c3ccccc3)C3CCOCC3)c2c1 [Example 288, 11-(Cyclopropylmethoxy)-5-[4-(^2H3)methyl-1-methyl-1H-1,2,3-triazol-5-yl]-8-[(S)-oxan-4-yl(phenyl)methyl]-3,8,12-triazatricyclo[7.4.0.0^2,^7]trideca-1(9),2(7),3,5,10,12-hexaene]",> 9.00
